According to patent publication US5447944A, “Carbamoyl-2-pyrrolidinone compounds” (Taiho Pharmaceutical Company, Limited, priority 1988, dated 1995):
Where two headings read alike, the source gives them in different places.

Legend:
[1] = Antianoxic activity test (Test Example 2): effect on the survival time under low-oxygen load at atmospheric pressure; assay type: in vivo, mice (ddY, five-week-old males); conditions: read-out: Antianoxia activity [increase ratio (%) of the survival time]
Text: Antianoxic activity test (effect on the survival time under low-oxygen load at atmospheric pressure)
Groups of 10 mice (ddY, five-week-old males) were used for the experiment with reference to Japan Journal of Pharmacology, 81, 421~429 (1983), same, 86, 323~328 (1985) and same, 89, 355~363 (1987). The test compound was orally given to the mouse as dissolved or suspended in 0.5% solution of sodium carboxymethyl cellulose, the mouse was placed into a transparent plastics container (13×13×16 cm) having a vent, and a gas mixture of 96% nitrogen and 4% oxygen was passed through the container at a rate of 5 liters/min.

[2] = Reversal activity of amnesia (Test Example 1): scopolamine-induced amnesia, step-through passive avoidance, antiamnesia effect; assay type: in vivo, rats (Wistar, males); conditions: read-out: Antiamnesia effect [increase ratio (%) of the step-through latency]; for change in vivo at 10 mg/kg: 10 mg/kg oral
Method: Reversal activity of amnesia
Groups of 6 to 16 rats (Wistar, males, weighing 170 to 240 g) were used for the experiment.
Scopolamine was used as dissolved in physiological saline, and the test compound as dissolved or suspended in 0.5% solution of sodium carboxymethyl cellulose.
Scopolamine was subcutaneously given at a dose of 0.5 mg/kg 30 minutes before aquisition trials. The test compound was orally given immediately after the aquisition trials.
The rat was subjected to habituation trials about 1 hour before aquisition trials. The habituation was accomplished by placing the rat into the light compartment, opening the door 5 seconds thereafter, closing the door when the four legs completely entered the dark compartment, leaving the rat in the dark compartment for 10 seconds and thereafter taking out the rat. The acquisition trial was accomplished in the same manner as the habituation 1 hour thereafter except that simultaneously when the door was closed upon the movement of the rat into the dark compartment, an unescapable foot shock of 4.5 mA was given to the rat by the floor grit for 1 second.
A retention test was conducted 24 hours after the aquisition trials to measure the step-through latency during which the rat placed into the light compartment remained therein before moving into the dark compartment, i.e., the duration of a passive avoidance reaction.

[3] = Acute toxicity test (Test Example 3); conditions: mouse, in vivo
Method: Mice (ddY, five-week-old males) were used in groups of 4 to 5 mice each. The test compound was dissolved or suspended in 0.5% solution of sodium carboxymethyl cellulose and administered orally. […] Many of the test compounds produced symptoms of sedation or mascular relaxation for 30 minutes to 6 hours, followed by gradual recovery. The original state was restored two days later.

[4] = 30 mg/kg oral, mouse, 96% nitrogen and 4% oxygen, vs control group
[5] = 100 mg/kg oral, mouse, 96% nitrogen and 4% oxygen, vs control group
[6] = 300 mg/kg oral, mouse, 96% nitrogen and 4% oxygen, vs control group
[7] = rat, retention test 24 hours after acquisition, scopolamine 0.5 mg/kg s.c., vs control group
[8] = 30 mg/kg oral, rat, retention test 24 hours after acquisition, scopolamine 0.5 mg/kg s.c., vs control group
[9] = 100 mg/kg oral, rat, retention test 24 hours after acquisition, scopolamine 0.5 mg/kg s.c., vs control group
[10] = 300 mg/kg oral, rat, retention test 24 hours after acquisition, scopolamine 0.5 mg/kg s.c., vs control group

SMILES	ILS at 30 mg/kg ([1]; Mus musculus, po)	ILS at 100 mg/kg ([1]; Mus musculus, po)	ILS at 300 mg/kg ([1]; Mus musculus, po)	change in vivo at 30 mg/kg ([2]; Rattus norvegicus, po, 24 h)	change in vivo at 100 mg/kg ([2]; Rattus norvegicus, po, 24 h)	change in vivo at 300 mg/kg ([2]; Rattus norvegicus, po, 24 h)	ILS at 30 mg/kg [1, 4]	ILS at 100 mg/kg [1, 5]	ILS at 300 mg/kg [1, 6]	change in vivo at 10 mg/kg [2, 7]	change in vivo at 30 mg/kg [2, 8]	change in vivo at 100 mg/kg [2, 9]	change in vivo at 300 mg/kg [2, 10]	LD50 at 72 h ([3]; po)	LD50 at 72 h ([3]; oral, observed for 3 days)
COc1ccc(C(=O)N2CCCC2=O)cc1 [Aniracetam, reference compound]	19%	26%	23%	230%	288%	42%									
O=C1CCCN1C(=O)Nc1ccccc1 [Compound 1]							-15%	15%	39%	360%	623%	367%	230%	> 5000 mg/kg	
COc1ccc(NC(=O)N2CCCC2=O)cc1 [Compound 2, 1-(4-methoxyphenylcarbamoyl)-2-pyrrolidinone]							11%	5%	27%	346%	557%	623%	507%		> 5000 mg/kg
O=C1CCCN1C(=O)Nc1ccc(Cl)cc1 [Compound 3]							11%	15%	46%					> 2000 mg/kg	
CN(C)c1ccc(NC(=O)N2CCCC2=O)cc1 [Compound 5]							-4%	22%	9%	119%	598%	213%	79%		< 5000 mg/kg
COc1ccc(NC(=O)N2CCCC2=O)cc1OC [Compound 6]							0%	-4%	14%		138%	568%	596%	> 5000 mg/kg	
COc1cc(NC(=O)N2CCCC2=O)cc(OC)c1OC [Compound 7]							4%	11%	66%		-10%	209%	345%	5000 mg/kg	
O=C1CCCN1C(=O)Nc1cccc2c1CCCC2 [Compound 8]							30%	25%	20%	125%	531%	490%	414%	> 5000 mg/kg	
O=C1CCCN1C(=O)Nc1ccncc1 [Compound 9]							13%	12%	16%	-7%	245%	157%	41%		< 5000 mg/kg
O=C1CCCN1C(=O)Nc1nccs1 [Compound 10]							-4%	-1%	35%		166%	144%	475%	5000 mg/kg	
O=C1CC(O)CN1C(=O)Nc1ccccc1 (stereo not drawn) [Compound 11, 1-phenylcarbamoyl-4-hydroxy-2-pyrrolidinone]							11%	62%	96%		346%	198%	518%		
COc1ccc(NC(=O)N2CC(O)CC2=O)cc1 (stereo not drawn) [Compound 12]							5%	7%	63%						
CC1CCN(C(=O)Nc2ccccc2)C1=O (stereo not drawn) [Compound 13]							9%	87%	37%					> 2000 mg/kg	
COc1ccc(NC(=O)N2CCC(C)C2=O)cc1 (stereo not drawn) [Compound 14, 3-methyl-1-(4-methoxyphenylcarbamoyl)-2-pyrrolidinone]							9%	26%	34%		75%	6%	1%		> 5000 mg/kg
COc1ccc(NC(=O)N2C(=O)CCC2C)cc1 (stereo not drawn) [Compound 15]							-3%	-1%	11%		25%	148%	672%	> 5000 mg/kg	
O=C1CCC(CO)N1C(=O)Nc1ccccc1 (stereo not drawn) [Compound 16, 5-hydroxymethyl-1-phenylcarbamoyl-2-pyrrolidinone]							10%	36%	89%		135%	103%	50%		5000 mg/kg
